Measurements as given in paper PMC2584044, “Key biosynthetic gene subfamily recruited for pheromone production prior to the extensive radiation of Lepidoptera” (BMC Evolutionary Biology, 2008).

Biological target: T1, Lca-QPAQ (Lca-Z9-QPAQ) (Lampronia capitella, UniProt B6CBS2)
T1 construct: full-length ORF, 353 residues, YEpOLEX in S. cerevisiae ole1
T1 sequence (B6CBS2 1-352): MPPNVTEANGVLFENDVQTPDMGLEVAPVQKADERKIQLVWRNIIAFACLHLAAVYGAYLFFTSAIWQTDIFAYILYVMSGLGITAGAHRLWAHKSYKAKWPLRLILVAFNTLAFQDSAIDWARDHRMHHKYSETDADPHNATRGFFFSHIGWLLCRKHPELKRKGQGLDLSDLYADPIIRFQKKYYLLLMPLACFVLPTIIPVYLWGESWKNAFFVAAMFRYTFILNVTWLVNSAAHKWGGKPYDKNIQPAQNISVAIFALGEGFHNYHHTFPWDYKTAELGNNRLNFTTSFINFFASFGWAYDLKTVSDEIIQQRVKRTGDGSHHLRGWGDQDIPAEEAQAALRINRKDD
Test: product GC-MS with DMDS adducts, yeast ole1 complementation
Type: cell-based
Conditions: endogenous yeast acyl (as acyl-CoA); 30 °C; product (Z)-9-hexadecenoic acid

CCCCCCCCCCCCCCCC(=O)O [palmitic acid]
product GC-MS with DMDS adducts, yeast ole1 complementation: Lca-QPAQ and Hass-KPSE are encoding Z9-desaturases displaying a substrate preference for palmitic acid
